{"source": "patent US12606836B2", "about": "“Process for extracellular secretion of Brazzein” (MAGELLAN LIFE SCIENCES LTD., priority 2016, dated 2026)", "molecules": {"B1": {"name": "Brazzein(A28D): wild-type TypeIII Brazzein; residue 50 of pelB-Brazzein mutated from Alanine to Aspartate; mature protein from Seq Id No. 8 (protein)", "chain": "MKYLLPTAAAGLLLLAAQPAMADKCKKVYENYPVSKCQLANQCNYDCKLDKHARSGECFYDEKRNLQCICDYCEY", "modifications": "misc_feature 1..234 Synthetic: nucleotide Sequence encoding pelB conjugated to Brazzein(A28D)"}}, "key": {"taste panel": {"tested_on": "taste panel", "experiment": "Sensory analysis of purified Brazzein (taste panel, sweetness threshold versus sucrose)", "type": "in vivo, humans", "conditions": "for Experimental Threshold: first sample sensed as sweet, 200 microliter applied to anterior tongue, 30 tasters; for Relative Sweetness (by weight): relative to sucrose, 1% (w/v) sucrose reference", "procedure": "A portion of the purified Brazzein (A28D) was lyophilized and re-dissolved in deionized water to 1.0 mg/mL. From this, Brazzein (A28D) solutions with following concentrations were made: 0.5, 1.0, 2.0, 3.0, 4.0, 5.0, 6.0, 7.0, 8.0, 9.0, and 10.0 μg/mL. A 1% (w/v) sucrose solution, the lowest concentration of sucrose detectable by humans, was used as a reference. The taste panel consisted of fifteen females and fifteen males with normal health and normal sense of taste. Two-hundred-microliter samples were applied to the anterior region of the tongue. After each test, the mouth was rinsed with tap water. The tasters sampled from the lower concentration samples to higher. Each taster chose the first sample that could be sensed for sweetness. Sweetness potencies were reported relative to sucrose on a weight basis."}, "[1]": {"experiment": "Thermal stability of secreted Brazzein (heating of cell free supernatant, SDS-PAGE)", "type": "physicochemical", "conditions": "cell free supernatant heated at 80° C. for 60 mins, centrifuged at 17,500 g, FIG. 11", "procedure": "Protein expression was analyzed by SDS-PAGE on 15% Tris-Glycine gels. To analyze protein in the cell culture medium, 17 μL of cell free supernatant (corresponding to 0.07% of total culture volume) was mixed with 17 μL of 2× reducing sample buffer, heated for 5 mins in a PCR machine, briefly spun and loaded into the gel. The gel was run at a constant voltage of 125V till the dye front exited the gel. The gels were washed in MILLI-Q® water for 1 hour and stained with Coomassie Stain. To analyze protein in whole cells, frozen cell pellets were thawed, re-suspended in 50 μL of MILLI-Q*water. 17 μL of resuspended cells were mixed with 17 μL of 2× Reducing Sample Buffer, heated for 5 mins in a PCR machine, briefly spun and loaded into the gel. The gel was run at constant voltage of 125V till the dye front exited it. The gels were washed in MILLI-Q*water for 1 hour and stained with Coomassie Stain.\n[…] The supernatant was analyzed by SDS-PAGE. Protein quantitation was done using BCA assay kit. As a result of heating, most of the endogenous E. coli proteins present in the cell free supernatant precipitated, leaving >90% pure Brazzein in solution."}, "[2]": {"conditions": "cited from earlier work"}}, "note": "Like-named read-outs stand apart in the source and are kept apart here."}
{"molecule": "OC[C@H]1O[C@@](CO)(O[C@H]2O[C@H](CO)[C@@H](O)[C@H](O)[C@H]2O)[C@@H](O)[C@@H]1O", "note": "[Sucrose, reference compound]", "values": [{"measurement": "Experimental Threshold", "setting": "taste panel", "value": "1 % [g/100 mL]"}, {"measurement": "Relative Sweetness (by weight)", "setting": "taste panel", "value": 1}]}
{"molecule": "Brazzein: high-potency thermostable sweet protein, originally isolated from the fruit of Pentadiplandra brazzeana Baillon (DKCKKVYENYPVSKCQLANQCNYDCKLDKHARSGECFYDEKRNLQCICDYCEY; Synthetic: Amino Acid Sequence of pelB-Brazzein(A28D))", "values": [{"measurement": "thermal stability: Brazzein in soluble supernatant after heating", "setting": "[1]", "value": "Presence of Brazzein in lanes 1 and 2"}, {"measurement": "sweeter than sucrose", "setting": "[2]; in comparison to 2% sucrose aqueous solution", "value": "2,500 times"}, {"measurement": "sweeter than sucrose", "setting": "[2]; in comparison to 10% sucrose", "value": 500, "unit": "times"}]}
{"molecule": "B1", "values": [{"measurement": "Experimental Threshold", "setting": "taste panel", "value": "0.0006 % [g/100 mL]"}, {"measurement": "sweeter than sucrose on a weight basis", "setting": "taste panel; relative to 1% (w/v) sucrose reference", "value": 1660, "unit": "times"}, {"measurement": "Relative Sweetness (by weight)", "setting": "taste panel", "value": 1660}]}
